Experimental data taken from publication PMC7669869, “AdipoR1/AdipoR2 dual agonist recovers nonalcoholic steatohepatitis and related fibrosis via endoplasmic reticulum-mitochondria axis” (Nature Communications, 2020).
Values joined by “and” are separate entries in the source; they are usually repeats but may differ in a detail not shown here. Identical values can stand only once. Like-named read-outs stand apart in the source and are kept apart here. Non-standard residues stand in square brackets, D forms with d. Residues, ends and D or L forms follow the SMILES beside them. No end group written: not given here. Nva = CCC[C@H](N)C(=O)O

Legend:
[1] = tested on: CCl4 induced liver fibrosis mice; experiment: CCl4 induced liver fibrosis mice: liver appearance, body weight, HE, Sirius red, IHC (αSMA, COL1α1, CD68); format: in vivo, mouse; conditions: CCl4 induced liver fibrosis mice; administration dosages of 0.5 mg kg−1 and 2 mg kg−1; in words
Protocol: Male mice liver fibrosis was induced by intraperitoneal injection of 20% CCl4 (Sigma, USA) diluted in corn oil (Aladdin, China) every 3 days for 6 weeks (n = 6; 5 ml kg^−1 body weight). Mice injected with equivalent volume of corn oil serves as control group (n = 6). Liver fibrosis mice treated with JT003 for 3 weeks were used to evaluated the pharmacological effects (n = 6; 500 μg kg^−1; daily intraperitoneal injection).
The levels of TG and HYP in liver tissue were detected with certain commercial assay kit (Nanjing Jiancheng Bioengineering Institute, China). Formalin-fixed liver tissues were embedded in paraffin, sectioned into 5 μm slices. After deparaffinization and rehydration of the section slices, they were stained with Haematoxylin and Eosin or Periodic Acid-Schiff. For the detection of liver collagen content, Sirius Red staining for collagen was performed. OCT-embedded frozen liver tissues were sectioned into 12 μm slices, and Oil Red O staining was performed. The cryostat-cut slices were stained with freshly prepared Oil Red O working solution for 7 min Two independent experimenters who were blinded to the treatment evaluated the staining slides and analyzed the score for steatosis, glucogen accumulation and collagen proliferation area.
Paraffin-embedded liver slices were deparaffinized and rehydrated, antigen retrieval was performed under the high pressure and temperature in 0.01 M sodium citrate buffer (pH = 6.0). To quench the endogenous peroxidase activity, the slices were then incubated with 1% hydrogen peroxide in methanol for 10 min in room temperature. Then slices were incubated with corresponding primary antibodies. After washing, HRP-conjugated secondary antibodies specific to the species of the primary antibodies were used. After the section were developed with DAB, hematoxylin staining was performed for cell counting.

HepG2 cells = experiment: PA induced lipid accumulation, Oil Red O staining; format: cell-based, human; conditions: HepG2, 0.25 mM PA + 200 μM peptide, 24 h; in words
Protocol: Hepatoma carcinoma cell line HepG2 and human hepatic activated stellate cell line LX2 used in this study were purchased from Type Culture Collection of the Chinese Academy of Sciences (Shanghai, China). Cells were cultured in Dulbecco’s modified Eagle’s medium (DMEM) with 10% fetal bovine serum (FBS), supplemented with 1% penicillin–streptomycin (ThermoFisher Scientific, USA) at 37 °C in a humidified atmosphere of 5% CO2. In PA (Sigma, USA) induced lipid accumulation cell model, HepG2 cells were seeded into a 6-well plate at 5E5 cells per well. 0.25 mM PA and/or 200 μM candidate peptides were co-incubated with cells for 24 h. Then Oil Red O staining was performed to evaluate the accumulation of lipid droplets. BSA (Sigma, USA) was used in this experiment as the negative control. For LX2 cells, 2E5 cells were seeded, then the adherent cells were exposed to 200 μM candidate peptides for another 48 h. Next, the cell protein was obtained and western blotting was performed. Candidate peptides were diluted in DMEM in a stock concentration of 1 M.

[2] = Pharmacokinetic assay in SD rats; format: in vivo, rat
Protocol: Male SpragueDawley (SD) rats were randomly divided into two groups (n = 3 per group) and received a single intravenous dose of JT003 (0.5 mg/kg) or ADP355 (1.0 mg kg^−1) respectively. Blood samples were collected at 5, 15, 30, 45 min and 1, 2, 3 h following the injection, and then were immediately centrifuged (4000g, 10 min, 4 °C) to obtain plasma samples. Plasma concentrations of the two peptides were measured by LC-MS/MS (ThermoFisher Scientific, USA). Pharmacokinetic parameters of JT003 and ADP355 were calculated using non-compartmental analysis in Phoenix WinNonlin (version 8.0, Pharsight, USA). The concentration values less than the LLOQ were set to zero for the analysis.

[3] = tested on: AdipoR1 and AdipoR2 on HepG2 and LX2 cells; experiment: Cell confocal imaging, receptor binding of FITC labeled peptide (with AdipoR siRNA); design: species or system human; conditions: 37 °C, 2 or 4 h, AdipoR1/AdipoR2 siRNA as control, in words
Protocol: For in vitro receptor binding assay, 4E4 HepG2 cells or 2E4 LX2 cells were seeded on 35 mm glass bottom dish with 150 μL complete medium. Then cells were incubated with FITC labeled peptide for 4 h. The nuclei were stained with Hoechst 33342 (ThermoFisher, Scientific, USA). After washing with PBS, cells were visualized in a laser confocal microscope (Olympus FV3000, Japan). Cells with suppressed AdipoR1 and AdipoR2 expression with each specific siRNA were used as negative control.
AdipoR1 and AdipoR2 siRNA as well as mock siRNA were chemically synthesized (GenePharma, China) and transfected into 60–70% confluent HepG2 and LX2 cells using Lipofectamine 3000 (ThermoFisher Scientific, USA). Dilution of siRNA and Lipofectamine 3000 reagents as well as the transfection of cells were performed following the manufacturer’s protocol. For HepG2 cell model, 5E5 cells were plated in 6-well plates and transfected with 5 μL of 20 μM stock siRNA. At 48 h following transfection, the cells were processed for 0.25 mM PA and/or 200 μM JT003 treated for another 24 h. BSA was used as the negative control. For LX2 cell model, 2E5 cells were plated in 6-well plates and transfected with 5 μL of 20 μM stock siRNA. At 48 h following transfection, the cells were processed for JT003 or PBS treated for another 48 h. Next, cells were harvested for either western blot or qPCR assay.

[4] = Serum stability assay (RP-HPLC); format: in vitro ADME; conditions: for Fraction of peptide remaining, Supplementary Figure 5: mouse serum, time 0 (unit not given); for remaining at 0.5 h, 5 mM: time 0.5 (unit inferred); for remaining at 1 h, 5 mM: time 1 (unit inferred); for remaining at 1.5 h, 5 mM: time 1.5 (unit inferred); for remaining at 2 h, 5 mM: time 2 (unit inferred); for remaining at 2.5 h, 5 mM: time 2.5 (unit inferred); for remaining at 4 h, 5 mM: time 4 (unit inferred); for remaining at 6 h, 5 mM: time 6 (unit inferred)
Protocol: The stability of candidate peptides was investigated following procedure. […] Ice-cold acetonitrile was added to terminate the reaction. Vortex and stand for 1 min, deionized water with 1% TFA was added to the mixture to further terminate the reaction. Mixtures were then centrifuged (13,000g, 10 min) to obtain the supernatant. RP-HPLC-MS was applied to analysis the content of candidate peptides. The serum stability of candidate peptides was represented as the retention rate of each peptide.

[5] = Sprague-Dawley, rat, male SD rats, single iv dose: JT003 0.5 mg/kg, ADP355 1.0 mg/kg, plasma, LC-MS/MS, non-compartmental, Mean ± SD, n = 3-6
[6] = mouse, replicate 1, read-out: Fraction of peptide remaining, Supplementary Figure 5
[7] = mouse, replicate 2, read-out: Fraction of peptide remaining, Supplementary Figure 5
[8] = mouse, replicate 3, read-out: Fraction of peptide remaining, Supplementary Figure 5

## CCC[C@H](NC(=O)[C@@H]1CCCN1C(=O)[C@@H](NC(=O)[C@H](N)CC(N)=O)[C@@H](C)CC)C(=O)N[C@@H](CC(C)C)C(=O)N[C@@H](Cc1ccc(O)cc1)C(=O)N[C@H](CO)C(=O)N[C@@H](Cc1ccccc1)C(=O)N[C@@H](C)C(=O)N[C@H](CO)C(N)=O [ADP355] (H-[dN]IP[Nva]LY[dS]FA[dS]-NH2; N-terminus and C-terminus assumed)
[1]
  inflammation, necrosis and fibrosis area (HE and sirius red staining): not notably raised
HepG2 cells
  lipid droplets accumulation caused by PA (Oil Red O): could be reduced
[2]; SD rats, after intravenous administration, ADP355 1.0 mg/kg
  time for which plasma concentrations were measurable: 45 min
[2]; SD rats, iv, authors' response to reviewers
  half-life: 6 min
[2]; [5]
  AUC(0-inf): 134 ± 19.9 ng·h/mL
  AUC(0-t): 134 ± 19.9 ng·h/mL
  MRT: 5.4 ± 0.6 min
  clearance: 126 mL/min/kg
[2]; Sprague-Dawley, rat, male SD rats, single iv dose: JT003 0.5 mg/kg, ADP355 1.0 mg/kg, plasma, LC-MS/MS, non-compartmental, Mean ± SD, n = 3-6, read-out: V
  Vd: 1.06 ± 0.21 L/kg
[2]; male SD rats, single iv dose: JT003 0.5 mg/kg, ADP355 1.0 mg/kg, plasma, LC-MS/MS, non-compartmental, Mean ± SD, n = 3-6 (n = 3 per group)
  t1/2: 6 ± 0.6 min and 6 min

## CCC[C@H](NC(=O)[C@@H]1CCCN1)C(=O)N[C@@H](CC(C)C)C(=O)N[C@@H](Cc1ccc(O)cc1)C(=O)N[C@@H](CO)C(=O)N[C@@H](Cc1ccccc1)C(=O)N[C@@H](CC(=O)O)C(N)=O [JT006] (H-P[Nva]LYSFD-NH2)
HepG2 cells
  lipid droplets accumulation caused by PA (Oil Red O): little prevention of palmitic acid induced lipid droplets
[3]
  binding to AdipoRs on the cell membrane (confocal, FITC): could not bind to the AdipoRs specifically

## PGLYYFD-NH2 (C-terminus assumed) [Pep70]
[4]; replicate 1
  Fraction of peptide remaining, Supplementary Figure 5: 0.9901
[4]; replicate 2
  Fraction of peptide remaining, Supplementary Figure 5: 1.005
[4]; replicate 3
  Fraction of peptide remaining, Supplementary Figure 5: 0.9939
[4]; [6]
  remaining at 0.5 h, 5 mM: 96.7%
  remaining at 1 h, 5 mM: 82.5%
  remaining at 1.5 h, 5 mM: 80.8%
  remaining at 2 h, 5 mM: 50.5%
  remaining at 2.5 h, 5 mM: 26.1%
  remaining at 4 h, 5 mM: 23.9%
  remaining at 6 h, 5 mM: 2.28%
[4]; [7]
  remaining at 0.5 h, 5 mM: 98.6%
  remaining at 1 h, 5 mM: 84%
  remaining at 1.5 h, 5 mM: 82.6%
  remaining at 2 h, 5 mM: 53.4%
  remaining at 2.5 h, 5 mM: 27.2%
  remaining at 4 h, 5 mM: 24.2%
  remaining at 6 h, 5 mM: 2.13%
[4]; [8]
  remaining at 0.5 h, 5 mM: 94.9%
  remaining at 1 h, 5 mM: 83.1%
  remaining at 1.5 h, 5 mM: 83.7%
  remaining at 2 h, 5 mM: 47.2%
  remaining at 2.5 h, 5 mM: 27.2%
  remaining at 4 h, 5 mM: 23.5%
  remaining at 6 h, 5 mM: 2.33%
[4]; mouse, time 3 (unit inferred), replicate 1, read-out: Fraction of peptide remaining, Supplementary Figure 5
  remaining at 3 h, 5 mM: 29.9%
[4]; mouse, time 3.5 (unit inferred), replicate 1, read-out: Fraction of peptide remaining, Supplementary Figure 5
  remaining at 3.5 h, 5 mM: 29.3%
